According to the METLIN SMRT retention time set (Domingo-Almenara et al. 2019):

Assay: gradient 5% acetonitrile 3 min, to 50% in 2 min, to 85% in 15 min, held 3 min, 100 µL/min
Conditions: column: Zorbax Extend-C18 2.1 x 50 mm; eluents: water / acetonitrile, 0.1% formic acid
In short: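 Retention times of pure standards were taken from adduct peaks that were selected by computer and manually inspected. Over 3 months, mixtures of ~100 molecules were run by HPLC–quadrupole time-of-flight mass spectrometry in positive and negative ionization mode. The Zorbax Extend-C18 column (2.1 × 50 mm, 1.8 μm) ran at 100 μL/min in water and acetonitrile, each containing 0.1% formic acid, with 40 μL dead volume and 900 μL dwell volume.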

RP-LC retention time [s] | SMILES
689 | O=C(Cn1ncc2c3ccccc3n(Cc3ccc(F)cc3)c2c1=O)N1CCN(c2ccccn2)CC1
767 | Cc1ccc(CN2CCN(C3CCN(C(=O)NCc4ccc(F)cc4)CC3)C(=O)C2=O)cc1
895 | Cc1cc(C)cc(Nc2c(-c3ccc(N4CCOCC4)cc3)nc3cnccn23)c1
1060 | COc1cccc(-c2noc(Cc3nnc(-c4cc(C)cc(C)c4)o3)n2)c1OC
653 | O=C(NCc1ccccn1)c1ccc2c(c1)N(C(=O)c1ccc(F)cc1)CC2
1260 | CCN1C(=O)COc2ccc(-c3noc(-c4ccc(C(F)(F)F)cc4)n3)cc21
662 | CCc1cccc(C)c1NC(=O)CSc1ccc(N2CCCC(C(=O)NC3CC3)C2)nn1 (centres undefined)
848 | O=C(c1n[nH]c(=O)c2ccccc12)N1CCCC1c1nc(CCOCC2CCCC2)no1 (centres undefined)
707 | CC(C)c1nc(CNC(=O)c2ccccc2)no1
1140 | C=CCn1c(=O)c2ccccc2n(Cc2nc(-c3ccc(F)c(Cl)c3)no2)c1=O
871 | Cc1ccc(NC(=O)Cn2nc3c(Oc4cc(C)cc(C)c4)nccn3c2=O)cc1
622 | Cc1oc(-c2[nH]ncc2C(=O)N(C)C)cc1S(=O)(=O)NCc1ccco1
821 | COC(=O)c1cccc(NC(=O)NC2CCCN2S(=O)(=O)c2ccc(Cl)cc2)c1 (centres undefined)
758 | CCC(C)NC(=O)N1CCN(Cc2nc3cc(C(C)(C)C)ccc3o2)CC1 (centres undefined)
794 | CCC(=O)N1CCc2sc(C(=O)N3CCN(c4ccccc4)CC3)cc2C1
1160 | CCOc1ccccc1-c1noc(Cn2c(=O)n(Cc3ccccc3Cl)c(=O)c3sccc32)n1
1090 | COc1ccc(N2CCN(S(=O)(=O)c3cc(-c4cc(C(F)(F)F)[nH]n4)sc3C)CC2)cc1
584 | COC(=O)c1c(C)[nH]c(C(=O)N2CCCC(C(=O)NCCCN3CCCC3)C2)c1C (centres undefined)
669 | O=C(Cn1nc2n(c1=O)CCCC2)NCc1ccccc1Cl
981 | O=C(c1nnn(Cc2ccc(Cl)cc2)c1-n1cccc1)N1CCSCC1
1120 | O=c1c2cc(-c3ccc(Cl)cc3)nn2ccn1Cc1ccc(F)cc1
706 | COc1cccc(CNC(=O)N2CCCC2c2cc(C)no2)c1 (centres undefined)

RP-LC retention time [s] | SMILES
972 | Cc1ccc(-c2nc3cnccn3c2Nc2cccc(C(F)(F)F)c2)cc1
906 | CCc1nc(-c2cc(S(=O)(=O)NCC(=O)NC3CCCCC3)c(C)s2)no1
786 | CS(=O)(=O)c1ccc2nc(Nc3nc4cc5c(cc4s3)OCO5)sc2c1
979 | O=C(Cn1nc(N2CCSCC2)c2ccccc2c1=O)Nc1ccc(Cl)cc1
778 | O=C(Cn1cnc2nc3c(cc2c1=O)CCCC3)Nc1ccc(Cl)cc1F
663 | Cn1c(=O)c(=O)n(C)c2cc(N3CCOCC3)c(NC(=O)c3ccco3)cc21
786 | OC(c1cc(C(F)(F)F)nc2c(Cl)cc(Cl)cc12)C1CCCCN1 (centres undefined)
676 | O=C(NCc1ccc(F)cc1)C1CCN(c2cc(N3CCCCC3)ncn2)CC1
824 | COc1cccc(CNC(=O)c2cn3cc(Cl)ccc3n2)c1OC
840 | CCOc1ccc(/C=C2\NC(=S)NC2=O)cc1
609 | Cc1cnc(CC2CCN(C(=O)N(C)C)C2)n1Cc1ccccc1 (centres undefined)
708 | Cc1cc(=O)n(CC(=O)Nc2cc(F)ccc2F)c(N2CCCCC2)n1
958 | Cc1ccc2c(c1)N(S(C)(=O)=O)CCC(C(=O)Nc1ccc(F)cc1F)O2 (centres undefined)
980 | CCCNC(=O)c1nnn(Cc2ccc(Cl)cc2)c1-n1cccc1
761 | COc1ccc(Cl)cc1NC(=O)N1CCCC(Cn2cnc3cccnc32)C1 (centres undefined)
1160 | c1ccc2c(c1)[nH]c1c3ccccc3sc21
792 | COc1ccc(NC(=O)N2CCCC(C)(C(=O)NCc3cccc(OC)c3)C2)cc1 (centres undefined)
757 | Cc1ccc(Cl)cc1NC(=O)N(C)CC1CCOC1 (centres undefined)
577 | CCCC(=O)N1CCCn2nc(-c3ccncc3)cc2C1
777 | COc1ccc(CSc2nccc3c2ccn3CC(=O)N2CCN(c3ccc(F)cc3)CC2)cc1
835 | CN(CCc1noc(COc2ccccc2F)n1)C(=O)c1cccs1
1040 | O=c1c2sccc2n(Cc2nc(-c3ccccc3)no2)c(=O)n1-c1ccc(Cl)cc1

RP-LC retention time [s] | SMILES
889 | CN1C(=O)C(C)(C(=O)Nc2cccc(Cl)c2)Oc2cccnc21 (centres undefined)
1100 | COc1ccc(NC(=O)C2CCN(c3nccnc3Sc3ccccc3)CC2)cc1Cl
757 | COc1ccc(CCC(=O)NCCCn2cccc2)cc1
611 | Nc1nc(CN2CCN(c3ncccn3)CC2)nc(N2CCCCC2)n1
758 | COC(=O)C(NC(=O)N1CCCn2nc(-c3ccc(OC)cc3)cc2C1)c1ccccc1 (centres undefined)
775 | COc1cc2c(cc1OC)CN(C(=O)C1CCCN1S(=O)(=O)c1ccc(F)cc1)CC2 (centres undefined)
1060 | COc1ccc(-c2nc3n(c2C(=O)Nc2nc(-c4ccc(C)cc4)cs2)CCS3(=O)=O)cc1
938 | CC(=O)c1cccc(NC(=O)N2C[C@H](c3nc(-c4ccccc4)no3)[C@@H](C)C2)c1
613 | COCCn1ncc(N2CCCC(CC(=O)O)C2)cc1=O (centres undefined)
599 | CC(=O)N1N=C(c2ccccc2NS(C)(=O)=O)CC1c1ccc2ncccc2c1 (centres undefined)
740 | COCC(=O)NC1CCC12CCN(S(=O)(=O)c1c(C)noc1C)CC2 (centres undefined)
881 | O=C(NC1CC1)c1nc(C(=O)N2CCN(c3ccccc3Cl)CC2)cs1
906 | Cn1cc(-c2ccc(F)cc2)cc1C(=O)N1CCCC1
784 | Cc1nn(C)cc1CN1CC(F)(F)C[C@H]1c1nnc(-c2ccccc2)o1
939 | Cc1cc(C)n(Cc2nc(-c3ccc(NC(=O)CC(C)(C)C)cc3)oc2C)n1
1120 | Cc1ccc(N2CCN(S(=O)(=O)c3ccc(-c4nnc(C5CCC5)o4)o3)CC2)cc1
772 | CCCn1c(-c2cccc(C(=O)NC3CCCC3)c2)nc2cccnc21
689 | COc1ccc(C(C)NC(=O)COc2ccc(NC(=O)C3CC3)cn2)cc1OC (centres undefined)
699 | Cc1nnc(C2CCCCCN2C(=O)c2ccoc2C)o1 (centres undefined)
892 | O=S(=O)(c1cccc(-c2nnc(-c3ccc(F)cc3)o2)c1)N1CCOCC1
900 | CCC(C)CC(=O)N1CCCN(C2=NS(=O)(=O)C(c3ccc(C)cc3)=C2C)CC1 (centres undefined)
840 | COc1ccc(NS(=O)(=O)c2cn(C(C)C)c3ncccc23)cc1

RP-LC retention time [s] | SMILES
617 | NS(=O)(=O)c1ccc(CCNC(=O)c2cccc(-n3cnnn3)c2)cc1
642 | Cc1ccc(S(=O)(=O)N2CCc3nc[nH]c3C2)cc1Cl
1110 | Cc1cc(C)c(NC(=O)C2CCCN(S(=O)(=O)c3cc(-c4noc(C)n4)cs3)C2)c(C)c1 (centres undefined)
620 | O=C(Nc1ccc(F)cc1F)C1(CCO)CCN(Cc2ccccc2)C1 (centres undefined)
1010 | Cc1cc2nn(CC(=O)N(C)c3ccccc3)c(=O)n2c(Nc2ccc(F)cc2)n1
836 | CN(Cc1cccn1C)C(=O)NC1CCCCC1
814 | Fc1cccc(-c2noc(-c3ccc(N4CCN(C5CCCCC5)CC4)nc3)n2)c1
1060 | Cc1ccc(S(=O)(=O)N2C(=O)CCC2C(=O)NC2CCCCCCC2)cc1C (centres undefined)
770 | COCc1nncn1C1CCN(S(=O)(=O)c2ccc(Cl)cc2C)CC1
580 | COc1ccc(C2C(C(=O)NCCCN3CCOCC3)CCC(=O)N2c2ccc(OC)cc2)cc1 (centres undefined)
630 | COc1ccc(-c2ccc3ncc4c(c3c2)n(-c2ccc(N3CCNCC3)c(C(F)(F)F)c2)c(=O)n4C)cn1
661 | CC(=O)Nc1nsc(N2CCC(C(=O)NCc3cc(F)cc(F)c3)CC2)n1
844 | COc1ccc(NC(=O)C2CCCN2S(=O)(=O)c2ccc(F)cc2)cc1 (centres undefined)
825 | Cc1cc2c(c(=O)n(-c3ccc(F)cc3)c(=O)n2CC(=O)Nc2ccc(F)cc2)n1C
936 | COc1ccc(NC(=O)CSc2nccc(N3CCN(c4cc(C)ccc4C)CC3)n2)cc1Cl
877 | CCc1nc2cc(N3CCC(C(=O)Nc4ccc(OC)cc4OC)CC3)cnc2nc1CC
909 | COc1ccc(N2CCN(S(=O)(=O)c3cc(-c4nnc(C5CC5)o4)co3)CC2)cc1
590 | Cc1ccc(-n2nc3c(N4CCN(C(=O)NCC5CCCO5)CC4)nnc(C)c3c2C)cc1 (centres undefined)
557 | Nc1c(Cl)ncnc1NCCO
536 | CC1CCCN(C(=O)CN2CCN(C)CC2)C1 (centres undefined)
649 | COc1cccc(CNC(=O)N2CCN(C3=CC4=NC(C)CN4C=N3)CC2)c1 (centres undefined)
737 | CCOC(=O)c1ccc(Nc2cc(C(=O)N3CCCCC3)nc3cc(OC)c(OC)cc23)cc1

SMILES | RP-LC retention time [s]
COCC1CN(C)CC12CCN(Cc1cccc(OC)n1)CC2 (centres undefined) | 567
